Experiment [1] has as its target T1, human PHD2 (Homo sapiens (Human), UniProt Q9GZT9). In words: Test 1: human PHD2 inhibitory activity, [14C]-2-oxoglutarate to [14C]-succinic acid radiometric assay with HIF-1α peptide. It is filed as biochemical. To be noted: test compound's concentration 1 μM; Test 1, [14C]-2-oxoglutarate radiometric assay; read-out: Percent inhibition (% at 1 μM). On the procedure:
(1) Expression and Preparation of Human PHD2
Human PHD2 was expressed in insect cells (HighFive cells). A registered sequence of human PHD2 (NM_022051) was introduced into the pFastBacl vector (Invitrogen), and the sequence was verified. The vector was introduced into Sf9 insect cells (Invitrogen) to acquire human PHD2 baculovirus. HighFive insect cells (Invitrogen) were infected with this recombinant virus and cultured at 27° C. for 72 hours; thereafter, a cell lysis solution containing various protease inhibitors was added and the cells were disrupted to form a suspension. The suspension of disrupted cells was centrifuged at 4° C. and 100,000×g for 30 minutes and the supernatant was recovered as a cell lysate.
(2) Measurement of Human PHD2 Inhibitory Activity
The activity of human PHD2 enzyme was measured with a substrate which is a 19-residue partial peptide based on the sequence of HIF-1α. Specifically, the conversion of 2-oxoglutarate to succinic acid which would occur simultaneously with the hydroxylation of a proline residue in the peptide with the PHD2 enzyme was utilized. To be more specific, [^14C]-2-oxogiutarate was added to the reaction system to initiate an enzymatic reaction and the [^14C]-2-oxoglutarate remaining after the reaction was bound to 2,4-dinitrophenylhydrazine (DNPH), with the resulting precipitate being removed by passage through a filter. Subsequently, radiation counting was conducted on the resulting [^14C]-succinic acid.
A test compound, HIF-1αpeptide and [^14C]-2-oxoglutarate were preliminarily added onto 96-well plates and reaction was initiated by adding a human PHD2 enzyme solution (4 μg/well). After 15-min incubation at 37° C., a DNPH-containing quench solution was added and the mixture was allowed to stand at room temperature for 30 minutes. Thereafter, an excess of non-radiolabelled 2-oxoglutarate was added and the mixture was allowed to stand at room temperature for 60 minutes. The resulting precipitate was removed by passage through a filter and the radiation count on the [^14C]-succinic acid was quantified (with MicroBeta). Radiation counting was conducted for each well and the human PHD2 inhibitory activity of each test compound was calculated on the basis of the values for the substrate-free group and the test compound-free group.

In experiment [2] the target is T1, human PHD2. In words: Test 2: human PHD2 inhibitory activity, fluorescence polarization assay of HIF-1α peptide proline hydroxylation. It is filed as biochemical. To be noted: test compound's concentration 1 μM; Test 2, fluorescence polarization assay; read-out: Percent inhibition (% at 1 μM). In short, it runs like this: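 A 19-mer HIF-1α peptide served as substrate, with the reaction started by 40 ng/well human PHD2 (cell lysate of NM_022051-transfected cells) and run 20 min at 30° C. before EDTA stop. Hydroxylated product bound anti-HIF-OH antibody, read by fluorescence polarization versus no-compound control.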
In general terms: In fluorescence polarisation assays a small probe gives low polarisation when free and higher when bound to something large.

Molecules are shown by their SMILES.

As usually defined, the inhibition is the relative decrease from the control value, in per cent.

T1 sequence (Q9GZT9 whole entry): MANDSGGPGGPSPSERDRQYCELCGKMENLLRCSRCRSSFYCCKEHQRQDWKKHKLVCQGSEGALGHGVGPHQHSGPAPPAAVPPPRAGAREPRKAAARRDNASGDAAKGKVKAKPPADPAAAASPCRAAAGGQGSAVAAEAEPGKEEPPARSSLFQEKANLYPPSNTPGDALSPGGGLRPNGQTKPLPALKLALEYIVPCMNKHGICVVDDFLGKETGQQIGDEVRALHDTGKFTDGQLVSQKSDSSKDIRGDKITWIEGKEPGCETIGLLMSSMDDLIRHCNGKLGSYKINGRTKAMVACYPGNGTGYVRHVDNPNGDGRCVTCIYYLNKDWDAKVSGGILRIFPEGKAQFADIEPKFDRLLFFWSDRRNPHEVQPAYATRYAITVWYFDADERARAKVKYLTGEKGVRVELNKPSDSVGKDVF

For `O=C(O)CNC(=O)C1=C(O)C2(CCC2)CN(Cc2cnc(-c3ccccc3)s2)C1=O` [Ex. 1-95], the inhibition at 1 µM at human PHD2 [1] was 85%; at human PHD2 [2] it was 91%.

Consider `CC1(C)CC(O)=C(C(=O)NCC(=O)O)C(=O)N1Cc1cnc(-c2ccccc2)s1` [Ex. 1-96], for which the inhibition at 1 µM on human PHD2 [1] was found to be 82%; at human PHD2 [2], 86%.

In the case of `O=C(O)CNC(=O)C1=C(O)C2(CCOCC2)CN(Cc2cnc(-c3ccccc3)s2)C1=O` [Ex. 1-97], the values for the inhibition at 1 µM at human PHD2 [1] and on human PHD2 [2] were 89% and 91%, respectively.

Take `O=C(O)CNC(=O)C1=C(O)CC2(CCOCC2)N(Cc2cnc(-c3ccccc3)s2)C1=O` [Ex. 1-98]: the inhibition at 1 µM on human PHD2 [1] and on human PHD2 [2] was 88% each time.

For the compound `O=C(O)CNC(=O)C1=C(O)CC2(CCOCC2)N(CC2CCC(c3ccccc3)CC2)C1=O` (stereo not drawn) [Ex. 1-99], the figures for the inhibition at 1 µM on human PHD2 [1] and at human PHD2 [2] were 71% and 92%, respectively.

Turning to `CC1CC(O)=C(C(=O)NCC(=O)O)C(=O)N1Cc1ccc(-c2ccc(C(F)(F)F)cc2)cc1` (stereo not drawn) [Ex. 1-100], the inhibition at 1 µM stood at 64% at human PHD2 [1] and 84% on human PHD2 [2].

For the compound `O=C(O)CNC(=O)C1=C(O)C2(CCCCC2)CN(Cc2ccc(-c3ccccn3)cc2)C1=O` [Ex. 1-101], the inhibition at 1 µM on human PHD2 [1] is 60%; on human PHD2 [2], 86%.

`O=C(O)CNC(=O)C1=C(O)C2(CCC2)CN(Cc2ccc(-c3ccccn3)cc2)C1=O` [Ex. 1-102]: the inhibition at 1 µM was 67% on human PHD2 [1] and 83% on human PHD2 [2].

For `CC1CN(Cc2ccc(C(F)(F)F)cc2)C(=O)C(C(=O)NCC(=O)O)=C1O` (stereo not drawn) [Ex. 1-103], the inhibition at 1 µM at human PHD2 [1] amounted to 76%; at human PHD2 [2], 82%.

`CC1CN(Cc2cnc(-c3ccccc3)s2)C(=O)C(C(=O)NCC(=O)O)=C1O` (stereo not drawn) [Ex. 1-104]: the inhibition at 1 µM was 87% at human PHD2 [1] and 94% on human PHD2 [2].

`O=C(O)CNC(=O)C1=C(O)CC2(CCOCC2)N(Cc2ccc(-c3ccccn3)cc2)C1=O` [Ex. 1-105]: the inhibition at 1 µM at human PHD2 [1] was found to be 78%; at human PHD2 [2], 83%.

Regarding `O=C(O)CNC(=O)C1=C(O)CC2(CCOCC2)N(Cc2ccc(C(F)(F)F)cc2)C1=O` [Ex. 1-106], the inhibition at 1 µM at human PHD2 [1] was 66%; on human PHD2 [2], 72%.

Turning to `CC1CN(CC2CCC(c3ccccc3)CC2)C(=O)C(C(=O)NCC(=O)O)=C1O` (stereo not drawn) [Ex. 1-107], the inhibition at 1 µM amounted to 67% on human PHD2 [1] and 90% on human PHD2 [2].

Consider `CC1CN(Cc2ccc(-c3ccc(C(F)(F)F)cc3)cc2)C(=O)C(C(=O)NCC(=O)O)=C1O` (stereo not drawn) [Ex. 1-108], for which the inhibition at 1 µM came out at 60% at human PHD2 [1] and 87% on human PHD2 [2].

On to `CC1(C)CC(O)=C(C(=O)NCC(=O)O)C(=O)N1Cc1ccc(-c2ccccn2)cc1` [Ex. 1-109], for which the inhibition at 1 µM at human PHD2 [1] stood at 70%; at human PHD2 [2], 77%.

For the compound `O=C(O)CNC(=O)C1=C(O)C2(CCOCC2)CN(Cc2ccc(-c3ccccn3)cc2)C1=O` [Ex. 1-110], the inhibition at 1 µM on human PHD2 [1] came to 82%; at human PHD2 [2] it was 84%.

In the case of `O=C(O)CNC(=O)C1=C(O)CC2(CCCCC2)N(Cc2ccc(-c3ccccn3)cc2)C1=O` [Ex. 1-111], the values for the inhibition at 1 µM on human PHD2 [1] and on human PHD2 [2] were 68% and 80%, respectively.

`O=C(O)CNC(=O)C1=C(O)CC2(CCCCC2)N(Cc2cnc(-c3ccccc3)s2)C1=O` [Ex. 1-112]: the values for the inhibition at 1 µM on human PHD2 [1] and at human PHD2 [2] were 68% and 90%, respectively.

Turning to `O=C(O)CNC(=O)C1=C(O)CCN(Cc2ccc(C(F)(F)F)c(F)c2)C1=O` [Ex. 1-113], the inhibition at 1 µM stood at 79% on human PHD2 [1] and 84% on human PHD2 [2].

As for `O=C(O)CNC(=O)C1=C(O)C2(CCC2)CN(CC2CCC(c3ccccc3)CC2)C1=O` (stereo not drawn) [Ex. 1-114], the inhibition at 1 µM came out at 36% at human PHD2 [1] and 83% on human PHD2 [2].

Turning to `CC1(C)CC(O)=C(C(=O)NCC(=O)O)C(=O)N1CC1CCC(c2ccccc2)CC1` (stereo not drawn) [Ex. 1-115], the inhibition at 1 µM at human PHD2 [1] was 49%; on human PHD2 [2], 83%.

Turning to `O=C(O)CNC(=O)C1=C(O)C2(CCOCC2)CN(CC2CCC(c3ccccc3)CC2)C1=O` (stereo not drawn) [Ex. 1-117], the inhibition at 1 µM amounted to 83% at human PHD2 [1] and 92% at human PHD2 [2].

In the case of `CC1(C)CC(O)=C(C(=O)NCC(=O)O)C(=O)N1Cc1ccc(-c2ccc(C(F)(F)F)cc2)cc1` [Ex. 1-118], the inhibition at 1 µM on human PHD2 [1] amounted to 77%; at human PHD2 [2] it was 87%.

For the compound `O=C(O)CNC(=O)C1=C(O)C2(CCOCC2)CN(Cc2ccc(-c3ccc(C(F)(F)F)cc3)cc2)C1=O` [Ex. 1-119], the inhibition at 1 µM was found to be 85% at human PHD2 [1] and 84% on human PHD2 [2].

For the compound `O=C(O)CNC(=O)C1=C(O)CCN(Cc2ccc(C(F)(F)F)c(C(F)(F)F)c2)C1=O` [Ex. 1-120], the inhibition at 1 µM was 69% at human PHD2 [1] and 82% on human PHD2 [2].

For the compound `Cc1ccc(CN2C(=O)C(C(=O)NCC(=O)O)=C(O)CC23CCC3)cc1` [Ex. 1-121], the inhibition at 1 µM was 66% at human PHD2 [1] and 71% at human PHD2 [2].

Regarding `O=C(O)CNC(=O)C1=C(O)CC2(CCC2)N(Cc2ccc(C(F)(F)F)cc2)C1=O` [Ex. 1-122], the inhibition at 1 µM on human PHD2 [1] is 65%; at human PHD2 [2] it was 76%.

With `O=C(O)CNC(=O)C1=C(O)CC2(COC2)N(Cc2cnc(-c3ccccc3)s2)C1=O` [Ex. 1-123], the values for the inhibition at 1 µM on human PHD2 [1] and at human PHD2 [2] were 90% and 93%, respectively.

For `O=C(O)CNC(=O)C1=C(O)CC2(COC2)N(Cc2ccc(C(F)(F)F)cc2)C1=O` [Ex. 1-124], the inhibition at 1 µM on human PHD2 [1] worked out at 72%; at human PHD2 [2], 79%.

On to `O=C(O)CNC(=O)C1=C(O)CCN(Cc2ccc(-c3ccccc3)c(F)c2)C1=O` [Ex. 1-125], for which the inhibition at 1 µM on human PHD2 [1] was 98%; on human PHD2 [2], 97%.

Consider `O=C(O)CNC(=O)C1=C(O)CCN(Cc2ccc(-c3ccc(F)cc3)cc2F)C1=O` [Ex. 1-126], for which the inhibition at 1 µM amounted to 97% at human PHD2 [1] and 98% on human PHD2 [2].

Take `O=C(O)CNC(=O)C1=C(O)CCN(Cc2ccc(-c3ccccc3)cc2F)C1=O` [Ex. 1-127]: the inhibition at 1 µM on human PHD2 [1] was found to be 92%; at human PHD2 [2], 95%.

As to `O=C(O)CNC(=O)C1=C(O)CCN(Cc2ccc(C(F)(F)F)c(Cl)c2)C1=O` [Ex. 1-128], the inhibition at 1 µM on human PHD2 [1] worked out at 88%; at human PHD2 [2] it was 84%.

On to `Cc1ccc(CN2CCC(O)=C(C(=O)NCC(=O)O)C2=O)cc1C(F)(F)F` [Ex. 1-129], for which the inhibition at 1 µM on human PHD2 [1] is 71%; on human PHD2 [2], 80%.

`O=C(O)CNC(=O)C1=C(O)CC2(CCC2)N(Cc2ccc(-c3ccccn3)cc2)C1=O` [Ex. 1-130]: the inhibition at 1 µM at human PHD2 [1] was determined as 89%; at human PHD2 [2], 90%.

As to `O=C(O)CNC(=O)C1=C(O)CC2(CCC2)N(Cc2cnc(-c3ccccc3)s2)C1=O` [Ex. 1-131], the results for the inhibition at 1 µM on human PHD2 [1] and at human PHD2 [2] were 93% and 96%, respectively.

On to `O=C(O)CNC(=O)C1=C(O)CC2(COC2)N(CC2CCC(c3ccccc3)CC2)C1=O` (stereo not drawn) [Ex. 1-132], for which the inhibition at 1 µM at human PHD2 [1] turned out to be 103%; on human PHD2 [2] it was 94%.

As to `O=C(O)CNC(=O)C1=C(O)CC2(COC2)N(Cc2ccc(-c3ccc(C(F)(F)F)cc3)cc2)C1=O` [Ex. 1-133], the inhibition at 1 µM at human PHD2 [1] stood at 104%; on human PHD2 [2], 97%.

For `O=C(O)CNC(=O)C1=C(O)CCN(Cc2ccc(C(F)(F)F)c(F)c2F)C1=O` [Ex. 1-134], the inhibition at 1 µM was 86% at human PHD2 [1] and 85% at human PHD2 [2].

For the compound `O=C(O)CNC(=O)C1=C(O)CCN(Cc2c(F)cc(C(F)(F)F)cc2F)C1=O` [Ex. 1-135], the inhibition at 1 µM on human PHD2 [1] and at human PHD2 [2] was 78% each time.

For `O=C(O)CNC(=O)C1=C(O)CCN(Cc2ccc(OC(F)(F)C(F)F)cc2)C1=O` [Ex. 1-136], the inhibition at 1 µM at human PHD2 [1] is 91%; on human PHD2 [2], 88%.

Consider `O=C(O)CNC(=O)C1=C(O)CC2(CCC2)N(CC2CCC(c3ccccc3)CC2)C1=O` (stereo not drawn) [Ex. 1-137], for which the results for the inhibition at 1 µM on human PHD2 [1] and at human PHD2 [2] were 78% and 92%, respectively.

Turning to `CC(C)(C)c1ccc(-c2ccc(CN3C(=O)C(C(=O)NCC(=O)O)=C(O)CC34COC4)cc2)cc1` [Ex. 1-138], the results for the inhibition at 1 µM on human PHD2 [1] and on human PHD2 [2] were 83% and 97%, respectively.

Regarding `O=C(O)CNC(=O)C1=C(O)CCN(Cc2ccc(F)cc2)C1=O` [Ex. 1-139], the inhibition at 1 µM stood at 72% on human PHD2 [1] and 78% on human PHD2 [2].

For `O=C(O)CNC(=O)C1=C(O)CCN(Cc2ccc(C(F)(F)C(F)(F)F)cc2)C1=O` [Ex. 1-140], the inhibition at 1 µM at human PHD2 [1] was found to be 79%; at human PHD2 [2], 85%.

Source of the values: patent US9422240B2, “Partially saturated nitrogen-containing heterocyclic compound” (TAISHO PHARMACEUTICAL CO., LTD, priority 2012, dated 2016).
